Reference: patent US20040229379A1, “Assay” (priority 2003, published 2004)

Test system: PDHK
Assay: Binding affinity of fluorescent binder structures for PDHK

Cc1cc(C)n2c1C=C1C=CC(CCC(=O)NCc3ccc(C(=O)N4C[C@H](C)N(C(=O)[C@@](C)(O)C(F)(F)F)C[C@H]4C)cc3)=[N+]1[B-]2(F)F [(IV)]
binding affinity for PDHK relative to (III/IIIA): lower binding affinity for PDHK than (III/IIIA)
